Reference: ChEMBL document CHEMBL4229521, “Identification of a novel series of potent and selective CCR6 inhibitors as biological probes” (Bioorg Med Chem Lett, 2018)

How the values were obtained:
[1] = molecular target: T1, C-C chemokine receptor type 6 (Homo sapiens, UniProt P51684); experiment: Inhibition of human CCR6 expressed in CHO cells assessed as decrease in CCL20-induced reduction of forskolin-stimulated cAMP accumulation preincubated for 30 mins followed agonist addition measured after 30 mins by HTRF assay; type: functional, cell-based
T1 sequence (P51684 whole entry): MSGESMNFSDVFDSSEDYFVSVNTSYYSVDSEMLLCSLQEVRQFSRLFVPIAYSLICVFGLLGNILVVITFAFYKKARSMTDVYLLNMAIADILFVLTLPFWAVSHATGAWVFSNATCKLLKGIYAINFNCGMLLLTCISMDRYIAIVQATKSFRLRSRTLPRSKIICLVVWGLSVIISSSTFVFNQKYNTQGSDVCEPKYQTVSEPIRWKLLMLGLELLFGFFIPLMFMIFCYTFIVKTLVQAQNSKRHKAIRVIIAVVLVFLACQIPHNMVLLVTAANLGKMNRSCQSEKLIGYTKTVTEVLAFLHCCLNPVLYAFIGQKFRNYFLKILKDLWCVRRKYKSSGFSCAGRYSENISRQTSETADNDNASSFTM

[2] = molecular target: T2, C-C chemokine receptor type 1 (Homo sapiens, UniProt P32246); experiment: Inhibition of human CCR1 expressed in CHO cells assessed as decrease in RANTES-induced reduction of forskolin-stimulated cAMP accumulation preincubated for 30 mins followed agonist addition measured after 30 mins by HTRF assay; type: functional, cell-based
T2 sequence (P32246 whole entry): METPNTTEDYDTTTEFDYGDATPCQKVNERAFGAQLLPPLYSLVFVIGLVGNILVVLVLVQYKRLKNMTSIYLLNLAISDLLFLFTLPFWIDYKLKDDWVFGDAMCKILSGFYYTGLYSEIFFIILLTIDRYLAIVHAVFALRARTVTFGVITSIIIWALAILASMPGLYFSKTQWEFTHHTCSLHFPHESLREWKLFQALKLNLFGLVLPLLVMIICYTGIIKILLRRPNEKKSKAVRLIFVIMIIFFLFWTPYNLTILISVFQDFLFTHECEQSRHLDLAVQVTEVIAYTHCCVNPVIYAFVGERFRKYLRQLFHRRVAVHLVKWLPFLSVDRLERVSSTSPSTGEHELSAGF

[3] = molecular target: T3, C-C chemokine receptor type 7 (Homo sapiens, UniProt P32248); experiment: Inhibition of human CCR7 expressed in CHO cells assessed as decrease in CCL19-induced reduction of forskolin-stimulated cAMP accumulation preincubated for 30 mins followed agonist addition measured after 30 mins by HTRF assay; type: functional, cell-based
T3 sequence (P32248 whole entry): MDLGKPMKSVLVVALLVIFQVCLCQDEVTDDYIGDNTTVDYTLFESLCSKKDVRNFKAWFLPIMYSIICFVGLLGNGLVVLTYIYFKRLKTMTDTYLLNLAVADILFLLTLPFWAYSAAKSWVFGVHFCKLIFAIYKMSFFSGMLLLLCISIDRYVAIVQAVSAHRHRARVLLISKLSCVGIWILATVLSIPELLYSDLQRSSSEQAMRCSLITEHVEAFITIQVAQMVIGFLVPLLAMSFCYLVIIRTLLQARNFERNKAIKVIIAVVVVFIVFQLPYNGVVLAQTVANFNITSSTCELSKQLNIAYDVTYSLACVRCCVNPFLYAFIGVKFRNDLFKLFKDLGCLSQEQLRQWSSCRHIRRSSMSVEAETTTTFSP

[4] = molecular target: T4, C-C chemokine receptor type 6 (Macaca mulatta, UniProt H9YX08); experiment: Inhibition of monkey CCR6 expressed in CHO cells assessed as decrease in CCL20-induced reduction of forskolin-stimulated cAMP accumulation preincubated for 30 mins followed agonist addition measured after 30 mins by HTRF assay; type: cell-based
T4 sequence (H9YX08 whole entry): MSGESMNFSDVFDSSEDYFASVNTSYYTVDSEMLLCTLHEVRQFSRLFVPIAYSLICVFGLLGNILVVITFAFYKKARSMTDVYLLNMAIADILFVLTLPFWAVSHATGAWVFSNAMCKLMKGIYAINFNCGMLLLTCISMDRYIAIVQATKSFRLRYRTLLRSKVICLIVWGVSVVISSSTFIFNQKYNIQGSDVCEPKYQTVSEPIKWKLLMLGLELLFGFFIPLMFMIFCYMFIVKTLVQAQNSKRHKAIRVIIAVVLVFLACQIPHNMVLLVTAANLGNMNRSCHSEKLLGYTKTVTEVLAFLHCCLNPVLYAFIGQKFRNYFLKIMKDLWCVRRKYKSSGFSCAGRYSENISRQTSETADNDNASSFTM

[5] = Cytotoxicity against human B cells assessed as ATP content at 30 uM by cell titer glo-based luminescence assay relative to control; conditions: read-out: Activity
[6] = Metabolic stability in human liver microsomes; type: ADME, microsome; conditions: read-out: Stability
[7] = Clearance in cynomolgus monkey at 0.1 mg/kg, iv or 1 mg/kg, po; type: ADME, organism-based, Macaca fascicularis; conditions: in vivo
[8] = AUC (0 to 24 hrs) in cynomolgus monkey at 0.1 mg/kg, iv; type: ADME, organism-based, Macaca fascicularis; parameters: dose 0.1 mg/kg, time < 24 hr, route intravenous; conditions: in vivo
CYP2C8 = molecular target: T5, CYP2C8 (Homo sapiens, UniProt P10632); experiment: Inhibition of CYP2C8 (unknown origin) at 10 uM relative to control; type: ADME
T5 sequence (P10632 whole entry): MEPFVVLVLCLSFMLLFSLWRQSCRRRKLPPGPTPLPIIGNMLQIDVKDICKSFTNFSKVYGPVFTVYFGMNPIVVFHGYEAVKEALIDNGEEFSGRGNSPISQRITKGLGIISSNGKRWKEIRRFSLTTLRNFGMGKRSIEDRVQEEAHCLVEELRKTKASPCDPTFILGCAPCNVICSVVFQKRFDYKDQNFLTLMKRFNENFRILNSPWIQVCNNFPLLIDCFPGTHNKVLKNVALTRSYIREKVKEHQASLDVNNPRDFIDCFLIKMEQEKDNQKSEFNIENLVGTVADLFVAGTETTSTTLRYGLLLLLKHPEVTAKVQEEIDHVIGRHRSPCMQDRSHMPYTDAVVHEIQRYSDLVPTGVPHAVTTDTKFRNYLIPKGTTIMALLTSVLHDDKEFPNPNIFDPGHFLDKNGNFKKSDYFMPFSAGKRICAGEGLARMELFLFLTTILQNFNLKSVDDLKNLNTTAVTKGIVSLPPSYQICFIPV

[9] = Fraction unbound in cynomolgus monkey plasma at 0.1 mg/kg, iv or 1 mg/kg, po; type: ADME, organism-based, Macaca fascicularis
[10] = molecular target: T6, Voltage-gated inwardly rectifying potassium channel KCNH2 (Homo sapiens, UniProt Q12809); experiment: Inhibition of human ERG in presence of BSA
CYP2D6 = CYP2D6 (Homo sapiens, UniProt P10635); experiment: Inhibition of CYP2D6 (unknown origin) at 10 uM relative to control; type: ADME
[11] = Oral bioavailability in cynomolgus monkey at 1 mg/kg; type: ADME, organism-based, Macaca fascicularis; conditions: in vivo
CYP2C9 = CYP2C9 (Homo sapiens, UniProt P11712); experiment: Inhibition of CYP2C9 (unknown origin) at 10 uM relative to control; type: ADME
[12] = molecular target: T6, Voltage-gated inwardly rectifying potassium channel KCNH2; experiment: Inhibition of human ERG in absence of BSA
[13] = Volume of distribution at steady state in cynomolgus monkey at 0.1 mg/kg, iv or 1 mg/kg, po; type: ADME, organism-based, Macaca fascicularis; conditions: in vivo, read-out: Vdss
[14] = AUC (0 to 24 hrs) in cynomolgus monkey at 1 mg/kg, po; type: ADME, organism-based, Macaca fascicularis; parameters: dose 1 mg/kg, time < 24 hr, route oral; conditions: in vivo
CYP3A4 = CYP3A4 (Homo sapiens, UniProt P08684); experiment: Inhibition of CYP3A4 (unknown origin) at 10 uM relative to control; type: ADME
CYP1A2 = molecular target: T7, CYP1A2 (Homo sapiens, UniProt P05177); experiment: Inhibition of CYP1A2 (unknown origin) at 10 uM relative to control; type: ADME
T7 sequence (P05177 whole entry): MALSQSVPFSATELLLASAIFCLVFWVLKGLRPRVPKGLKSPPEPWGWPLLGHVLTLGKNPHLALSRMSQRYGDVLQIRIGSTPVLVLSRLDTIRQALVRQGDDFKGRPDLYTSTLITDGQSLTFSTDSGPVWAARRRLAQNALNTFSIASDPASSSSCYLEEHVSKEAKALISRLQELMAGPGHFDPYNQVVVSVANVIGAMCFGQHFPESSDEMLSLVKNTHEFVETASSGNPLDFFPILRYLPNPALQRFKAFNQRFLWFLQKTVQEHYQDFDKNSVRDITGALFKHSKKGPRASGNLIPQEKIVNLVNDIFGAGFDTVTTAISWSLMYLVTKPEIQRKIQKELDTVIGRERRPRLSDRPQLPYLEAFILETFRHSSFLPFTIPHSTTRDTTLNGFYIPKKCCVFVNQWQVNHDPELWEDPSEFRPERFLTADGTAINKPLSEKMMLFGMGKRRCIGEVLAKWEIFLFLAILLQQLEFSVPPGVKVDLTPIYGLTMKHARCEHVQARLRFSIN

[15] = Solubility of the compound in buffer solution at pH 6.8; type: physicochemical
[16] = Solubility of the compound in water at pH 6.8; type: physicochemical

T6 sequence (Q12809 whole entry): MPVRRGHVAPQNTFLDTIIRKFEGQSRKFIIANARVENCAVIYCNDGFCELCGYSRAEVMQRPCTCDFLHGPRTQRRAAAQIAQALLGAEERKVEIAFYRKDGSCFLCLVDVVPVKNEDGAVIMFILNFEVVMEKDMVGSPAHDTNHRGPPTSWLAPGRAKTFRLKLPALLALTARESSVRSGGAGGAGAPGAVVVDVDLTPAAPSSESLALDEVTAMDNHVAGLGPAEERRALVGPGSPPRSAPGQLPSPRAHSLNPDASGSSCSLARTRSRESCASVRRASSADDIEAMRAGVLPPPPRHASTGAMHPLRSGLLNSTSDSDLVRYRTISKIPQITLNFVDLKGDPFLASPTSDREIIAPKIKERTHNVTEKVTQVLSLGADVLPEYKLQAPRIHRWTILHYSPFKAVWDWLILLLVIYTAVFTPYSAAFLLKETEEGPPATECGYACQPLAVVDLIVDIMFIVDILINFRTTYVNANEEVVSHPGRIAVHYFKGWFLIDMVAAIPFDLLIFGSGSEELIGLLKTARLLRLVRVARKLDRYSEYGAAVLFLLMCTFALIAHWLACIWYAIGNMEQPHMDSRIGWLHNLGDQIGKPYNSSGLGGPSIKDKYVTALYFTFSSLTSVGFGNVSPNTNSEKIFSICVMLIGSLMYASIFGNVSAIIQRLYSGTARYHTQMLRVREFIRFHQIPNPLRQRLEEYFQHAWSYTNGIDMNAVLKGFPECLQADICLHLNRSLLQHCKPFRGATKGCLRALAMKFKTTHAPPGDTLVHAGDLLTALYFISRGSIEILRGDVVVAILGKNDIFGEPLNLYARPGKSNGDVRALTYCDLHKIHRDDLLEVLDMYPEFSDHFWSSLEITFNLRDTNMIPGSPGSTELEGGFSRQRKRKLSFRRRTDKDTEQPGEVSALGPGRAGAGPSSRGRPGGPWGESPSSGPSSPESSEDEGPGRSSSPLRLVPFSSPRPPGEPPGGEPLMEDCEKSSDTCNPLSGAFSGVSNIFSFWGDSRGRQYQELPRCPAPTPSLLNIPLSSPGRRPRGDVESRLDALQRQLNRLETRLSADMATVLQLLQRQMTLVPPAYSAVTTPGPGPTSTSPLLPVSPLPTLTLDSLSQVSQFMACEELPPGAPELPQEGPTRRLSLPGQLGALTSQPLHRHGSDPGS
Chain of CYP2D6 (P10635 whole entry): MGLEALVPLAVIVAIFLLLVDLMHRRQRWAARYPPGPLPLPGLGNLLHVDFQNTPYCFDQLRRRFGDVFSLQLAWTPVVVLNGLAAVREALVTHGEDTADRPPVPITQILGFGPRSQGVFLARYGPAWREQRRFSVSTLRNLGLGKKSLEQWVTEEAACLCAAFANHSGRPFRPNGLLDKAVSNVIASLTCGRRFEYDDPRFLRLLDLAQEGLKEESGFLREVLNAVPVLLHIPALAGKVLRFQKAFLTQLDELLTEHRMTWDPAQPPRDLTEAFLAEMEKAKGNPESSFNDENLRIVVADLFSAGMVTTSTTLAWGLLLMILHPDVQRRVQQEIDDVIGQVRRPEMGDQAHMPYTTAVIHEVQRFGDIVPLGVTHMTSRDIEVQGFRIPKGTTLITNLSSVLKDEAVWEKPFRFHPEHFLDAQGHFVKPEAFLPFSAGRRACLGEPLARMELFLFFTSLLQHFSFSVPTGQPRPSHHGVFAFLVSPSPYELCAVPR
Chain of CYP3A4 (P08684 whole entry): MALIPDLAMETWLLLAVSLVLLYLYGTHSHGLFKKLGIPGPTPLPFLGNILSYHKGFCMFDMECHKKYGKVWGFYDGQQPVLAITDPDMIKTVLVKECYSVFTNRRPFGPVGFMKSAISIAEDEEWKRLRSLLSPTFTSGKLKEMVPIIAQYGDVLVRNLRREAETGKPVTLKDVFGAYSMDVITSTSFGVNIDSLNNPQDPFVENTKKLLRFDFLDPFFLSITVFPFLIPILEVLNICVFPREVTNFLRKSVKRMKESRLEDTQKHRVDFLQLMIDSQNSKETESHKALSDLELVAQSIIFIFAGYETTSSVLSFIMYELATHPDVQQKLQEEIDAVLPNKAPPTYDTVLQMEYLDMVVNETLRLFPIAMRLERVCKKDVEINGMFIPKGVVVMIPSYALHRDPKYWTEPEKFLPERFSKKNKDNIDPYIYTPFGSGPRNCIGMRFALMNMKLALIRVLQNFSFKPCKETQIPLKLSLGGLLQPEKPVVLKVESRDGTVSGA
Chain of CYP2C9 (P11712 whole entry): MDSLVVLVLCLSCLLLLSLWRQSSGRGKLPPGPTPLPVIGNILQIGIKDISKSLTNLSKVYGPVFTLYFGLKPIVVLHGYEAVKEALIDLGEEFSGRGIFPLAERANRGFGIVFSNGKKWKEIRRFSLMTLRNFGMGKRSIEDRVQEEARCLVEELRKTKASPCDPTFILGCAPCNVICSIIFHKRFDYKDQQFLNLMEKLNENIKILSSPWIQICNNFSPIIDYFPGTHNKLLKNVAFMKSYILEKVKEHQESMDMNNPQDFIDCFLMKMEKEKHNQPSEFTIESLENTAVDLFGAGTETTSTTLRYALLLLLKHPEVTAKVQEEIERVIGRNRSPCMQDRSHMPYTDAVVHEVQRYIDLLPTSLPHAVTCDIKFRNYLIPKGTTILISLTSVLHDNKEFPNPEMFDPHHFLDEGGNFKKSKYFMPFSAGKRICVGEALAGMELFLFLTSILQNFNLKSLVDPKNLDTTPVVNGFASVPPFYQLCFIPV

Row | Structure (SMILES) | IC50 [1] [µM] | IC50 [2] [µM] | IC50 [3] [µM] | also measured
1 | N#Cc1ccc(NC2CCN(S(=O)(=O)c3ccc(Cl)cc3)CC2)nc1 | 1.5 |  |  | 
2 | N#Cc1ccc(-c2ccc(S(=O)(=O)[C@H]3CC[C@H](Nc4ccc(C(F)(F)F)cn4)CC3)cc2)cc1 |  | > 30 | > 30 | 
3 | Cc1ccc(S(=O)(=O)N2CCC(Nc3ccc(C#N)cn3)CC2)cc1 | 3.1 | > 30 | > 30 | IC50 [4]: 1.3 µM
4 | COc1ccc(S(=O)(=O)N2CCC(Nc3ccc(C#N)cn3)CC2)cc1 | 2.5 |  |  | viability at 30 µM [5]: 72.7%; microsomal CLint [6]: 19 µL/min/mg
5 | NC(=O)c1ccc(-c2ccc(S(=O)(=O)[C@H]3CC[C@H](Nc4ccc(C(F)(F)F)cn4)CC3)cc2)cc1 |  | > 30 | > 30 | 
6 | COc1ccc(S(=O)(=O)N2CCC(Nc3cc(C#N)ccn3)CC2)cc1 | > 30 |  |  | 
7 | NC(=O)c1cc(-c2ccc(S(=O)(=O)[C@H]3CC[C@H](Nc4ccc(C(F)(F)F)cn4)CC3)cc2)ccn1 |  | > 30 | 9.4 | clearance [7]: 1.1 mL/min/kg; AUC(0-t) at 24 h [8]: 1550 ng·h/mL; inhibition at 10 µM (CYP2C8): < 50%; fraction unbound [9]: 0.01; inhibition (INH) [10]: < 50%; inhibition at 10 µM (CYP2D6): < 50%; bioavailability [11]: 65%; inhibition at 10 µM (CYP2C9): 51%; inhibition (INH) [12]: < 50%; Vd [13]: 0.704 L/kg; AUC(0-t) at 24 h [14]: 10000 ng·h/mL; inhibition at 10 µM (CYP3A4): < 50%; inhibition at 10 µM (CYP1A2): < 50%
8 | Cc1cccc(S(=O)(=O)N2CCC(Nc3ccc(C#N)cn3)CC2)c1 | > 30 |  |  | 
9 | COc1ccc(S(=O)(=O)N2CCC(Nc3ccc(C#N)cc3)CC2)cc1 | 1.9 |  |  | viability at 30 µM [5]: 44.9%; microsomal CLint [6]: 69 µL/min/mg
10 | NC(=O)c1ccc(-c2ccc(S(=O)(=O)[C@H]3CC[C@H](Nc4ccc(C(F)(F)F)cn4)CC3)cc2)cn1 |  | > 30 | 18 | 
11 | COc1ccc(S(=O)(=O)N2CCC(Nc3cccc(C#N)n3)CC2)cc1 | 7.4 |  |  | 
12 | N#Cc1ccc(NC2CCN(S(=O)(=O)c3ccc(-c4ccccc4)cc3)CC2)nc1 | 0.29 | > 30 | > 30 | IC50 [4]: 0.28 µM
13 | N#Cc1ccc(NC2CCN(S(=O)(=O)c3cccc(-c4ccccc4)c3)CC2)nc1 | > 30 |  |  | 
14 | CC(C)(C)c1ccc(S(=O)(=O)N2CCC(Nc3ccc(C#N)cn3)CC2)cc1 |  |  |  | solubility [15]: < 0.1 µg/mL; solubility [16]: < 0.1 µg/mL
15 | COc1ccc(S(=O)(=O)N2CCC(Nc3ccc(C#N)cn3)C2)cc1 (stereo not given) | > 30 |  |  | 
16 | CC(=O)Nc1ccc(S(=O)(=O)N2CCC(Nc3ccc(C#N)cn3)CC2)cc1 | > 30 |  |  | 
17 | COc1ccc(NC2CCN(S(=O)(=O)c3ccc(OC)cc3)CC2)cc1 | > 30 |  |  | 
